Measured values as given in patent US9980945B2, “Benzoisoxazole-substituted compounds as MGLUR4 allosteric potentiators, compositions, and methods of treating neurological dysfunction” (Vanderbilt University, priority 2015, dated 2018).

Biological target: mGluR4 (UniProt Q14833)
Experiment: mGluR4 potentiation assay (EC50 for potentiation at EC20 agonist; fluorometric plate reader, Ca2+ or thallium dye)
Type: cell-based
Conditions: potentiation of mGluR4; species of receptor not given
Description: The disclosed compounds and compositions can be evaluated for their ability to act as a potentiator of metabotropic glutamate receptor activity, in particular mGluR4 activity, by any suitable known methodology known in the art. For example, Chinese Hamster Ovary (CHO) cells transacted with human mGluR4 or HEK cells co-transfected with rat mGluR4 and the G-protein regulated Inwardly Rectifying Potassium channel (GIRK) were plated in clear bottom assay plates for assay in a Hamamatsu FDSS Fluorometric Plate Reader. The cells were loaded with either a Ca2+-sensitive fluorescent dye or the thallium responsive dye and the plates were washed and placed into a suitable kinetic plate reader. For human mGluR4 assays, a fluorescence baseline was established for 3-5 seconds, the disclosed compounds were then added to the cells, and the response in cells was measured. Approximately two and a half minutes later, a concentration of mGluR4 orthosteric agonist (e.g. glutamate or L-AP4) eliciting approximately 20% (EC20) of the maximal agonist response was added to the cells, and the response was measured. Two minutes later, a concentration of mGluR4 agonist (e.g. glutamate or L-AP4) eliciting 80% (EC80) of the maximal agonist response was added to the cells, and the response was measured. For rat mGluR4/GIRK experiments, a baseline was established for approximately five seconds, disclosed compounds were added, and either an EC20 or EC80 concentration of agonist was added approximately two and one half minutes later. Potentiation of the agonist response of mGluR4 by the disclosed compounds was observed as an increase in response to the EC20 concentration of agonist in the presence of compound compared to the response to agonist in the absence of compound. Similarly, antagonism of the agonist response of mGluR4 by the disclosed compounds was observed as a decrease in response to the EC80 concentration of agonist in the presence of compound compared to the response to agonist in the absence of compound.
The above described assay operated in two modes. In the first mode, a range of concentrations of the disclosed compounds are added to cells, followed by a single fixed concentration of agonist. If the compound acts as a potentiator, an EC50 so value for potentiation and a maximum extent of potentiation by the compound at this concentration of agonist is determined by non-linear curve fitting. If the compound acts as a noncompetitive antagonist, an IC50 value is determined by non-linear curve fitting. In the second mode, several fixed concentrations of the disclosed compounds are added to various wells on a plate, followed by a range in concentrations of agonist for each concentration of disclosed compound. The EC50 values for the agonist at each concentration of compound are determined by non-linear curve fitting. A decrease in the EC50 value of the agonist with increasing concentrations of the sample compound (a leftward shift of the agonist concentration-response curve) is an indication of the degree of mGluR4 potentiation at a given concentration of the sample compound. A decrease in the maximal response of the agonist with increasing concentrations of the sample compounds, with or without a rightward shift in agonist potency, is an indication of the degree of noncompetitive antagonism at mGluR4. The second mode also indicates whether the sample compounds also affect the maximum response to mGluR4 to agonists.

Row | Compound | EC50
1 | C[C@@H](NCc1noc2cc(Nc3n[nH]c4cccnc34)ccc12)C(C)(C)C [Example 79, N-(1H-pyrazolo[4,3-b]pyridin-3-yl)-3-[[[(1R)-1,2,2-trimethylpropyl]amino]methyl]-1,2-benzoxazol-6-amine] | 0.622 µM
2 | CCC(CC)c1noc2cc(Nc3n[nH]c4nccnc34)ccc12 [Example 83, 3-(1-ethylpropyl)-N-(1H-pyrazolo[3,4-b]pyrazin-3-yl)-1,2-benzoxazol-6-amine] | 0.0971 µM
3 | CCC(CC)c1noc2cc(Nc3n[nH]c4ncccc34)ccc12 [Example 84, 3-(1-ethylpropyl)-N-(1H-pyrazolo[3,4-b]pyridin-3-yl)-1,2-benzoxazol-6-amine] | 0.522 µM
4 | CCC(CC)c1noc2cc(Nc3n[nH]c4cccnc34)ccc12 [Example 85, 3-(1-ethylpropyl)-N-(1H-pyrazolo[4,3-b]pyridin-3-yl)-1,2-benzoxazol-6-amine] | 0.132 µM
5 | CCCC(C)c1noc2cc(Nc3n[nH]c4cccnc34)ccc12 (centres unmarked) [Example 94, 3-(1-methylbutyl)-N-(1H-pyrazolo[4,3-b]pyridin-3-yl)-1,2-benzoxazol-6-amine] | 0.118 µM
6 | CCCC(C)c1noc2cc(Nc3n[nH]c4ncccc34)ccc12 (centres unmarked) [Example 95, 3-(1-methylbutyl)-N-(1H-pyrazolo[3,4-b]pyridin-3-yl)-1,2-benzoxazol-6-amine] | 0.673 µM
7 | CCCC(C)c1noc2cc(Nc3n[nH]c4ncc(F)cc34)ccc12 (centres unmarked) [Example 96, N-(5-fluoro-1H-pyrazolo[3,4-b]pyridin-3-yl)-3-(1-methylbutyl)-1,2-benzoxazol-6-amine] | 0.418 µM
8 | CCCC(C)c1noc2cc(Nc3n[nH]c4nccnc34)ccc12 (centres unmarked) [Example 98, 3-(1-methylbutyl)-N-(1H-pyrazolo[3,4-b]pyrazin-3-yl)-1,2-benzoxazol-6-amine] | 0.172 µM

Second part, the molecule after the results:

Row | EC50 | Compound
9 | 0.192 µM | FC(F)(F)CCc1noc2cc(Nc3n[nH]c4nccnc34)ccc12 [Example 100, N-(1H-pyrazolo[3,4-b]pyrazin-3-yl)-3-(3,3,3-trifluoropropyl)-1,2-benzoxazol-6-amine]
10 | 0.216 µM | Cc1noc2ccc(Nc3n[nH]c4ncc(F)cc34)cc12 [Example 104, N-(5-fluoro-1H-pyrazo!o[3,4-b]pyridin-3-yl)-3-methyl-1,2-benzoxazol-5-amine]
11 | 0.0771 µM | Cc1noc2c(F)cc(Nc3n[nH]c4cccnc34)cc12 [Example 105, 7-fluoro-3-methyl-N-(1H-pyrazolo[4,3-b]pyridin-3-yl)-1,2-benzoxazol-5-amine]
12 | 0.0231 µM | Cc1noc2c(F)cc(Nc3n[nH]c4nccnc34)cc12 [Example 106, 7-fluoro-3-methyl-N-(1H-pyrazolo[3,4-b]pyrazin-3-yl)-1,2-benzoxazol-5-amine]
13 | 0.0531 µM | Cc1noc2c(F)cc(Nc3n[nH]c4ncccc34)cc12 [Example 107, 7-fluoro-3-methyl-N-(1H-pyrazolo[3,4-b]pyridin-3-yl)-1,2-benzoxazol-5-amine]
14 | 0.416 µM | FC(F)(F)CCc1noc2cc(Nc3n[nH]c4cccnc34)ccc12 [Example 109, N-(1H-pyrazolo[4,3-b]pyridin-3-yl)-3-(3,3,3-trifluoropropyl)-1,2-benzoxazol-6-amine]
15 | 0.0748 µM | Cn1ncc2cc(Cc3noc4cc(Nc5n[nH]c6cccnc56)ccc34)ccc21 [Example 112, 3-[(1-methylindazol-5-yl)methyl]-N-(1H-pyrazolo[4,3-b]pyridin-3-yl)-1,2-benzoxazol-6-amine]
16 | 0.0423 µM | Cn1ncc2cc(Cc3noc4cc(Nc5n[nH]c6nccnc56)ccc34)ccc21 [Example 114, 3-[(1-methylindazol-5-yl)methyl]-N-(1H-pyrazolo[3,4-b]pyrazin-3-yl)-1,2-benzoxazol-6-amine]
17 | 5.77 µM | c1cnc2c(Nc3ccc4c(CN5CCOCC5)noc4c3)n[nH]c2c1 [Example 133, 3-(morpholinomethyl)-N-(1H-pyrazolo[4,3-b]pyridin-3-yl)-1,2-benzoxazol-6-amine; 2,2,2-trifluoroacetic acid]
